This note sets out measurements from article PMC9865645, “The Impact of N^ε-Acryloyllysine Piperazides on the Conformational Dynamics of Transglutaminase 2” (International Journal of Molecular Sciences, 2023).

The target of the assay is T1, hTGase 2 (Homo sapiens, UniProt P21980).
T1 construct: purchased Zedira (Darmstadt, Germany) T022, lot 0716a
T1 sequence (P21980 1-687): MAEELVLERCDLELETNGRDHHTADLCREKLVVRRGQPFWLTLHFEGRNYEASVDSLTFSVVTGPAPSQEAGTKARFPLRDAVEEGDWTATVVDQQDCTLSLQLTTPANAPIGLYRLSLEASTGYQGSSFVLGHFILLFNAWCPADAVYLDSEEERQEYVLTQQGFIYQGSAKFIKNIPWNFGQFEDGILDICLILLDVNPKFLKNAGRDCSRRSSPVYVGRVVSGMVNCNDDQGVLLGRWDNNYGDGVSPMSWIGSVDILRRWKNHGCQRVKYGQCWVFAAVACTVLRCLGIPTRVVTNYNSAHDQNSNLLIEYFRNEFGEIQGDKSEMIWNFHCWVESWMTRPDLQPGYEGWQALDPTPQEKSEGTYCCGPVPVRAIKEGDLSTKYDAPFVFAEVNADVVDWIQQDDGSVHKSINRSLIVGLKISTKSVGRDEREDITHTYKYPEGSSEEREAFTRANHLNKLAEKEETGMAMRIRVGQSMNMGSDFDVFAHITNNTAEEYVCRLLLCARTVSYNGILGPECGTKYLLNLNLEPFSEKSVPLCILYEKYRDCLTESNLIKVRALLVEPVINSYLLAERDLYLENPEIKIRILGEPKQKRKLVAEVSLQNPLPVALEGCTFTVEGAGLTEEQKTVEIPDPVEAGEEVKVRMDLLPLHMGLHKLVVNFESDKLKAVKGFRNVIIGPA
Description: switchSENSE dynamic mode: upward motion (relative inverse slope, friction) of hTGase 2-dsDNA lever. The note with it: GTPγS 20 nM or Ca^2+ 1 mM; non-directed and His-tag-directed labeling. The protocol:
Prior to the measurement of the switching kinetics of the differently conjugated hTGase 2, a complementary ssDNA without the enzyme (500 nM) was hybridized to the single-stranded capture strands on the chip electrodes to obtain the reference kinetics of the dsDNA lever. In addition, to determine the impact of CaCl2 and DMSO on the movement of the bare dsDNA lever, and thus on reference kinetics, its switching behavior was investigated in TE40, TE40 + 1 mM CaCl2, TE40 + 1 mM CaCl2 + 1% DMSO or TE40 + 1 mM CaCl2 + 0.1% DMSO.
Then, the dehybridization of the reference lever occurred during a regeneration step followed by the hybridization with an ssDNA-hTGase 2 conjugate (500 nM). Thereafter, the switching kinetics was recorded. […]
The impact on the hydrodynamic drag of the hTGase 2-functionalized lever was investigated under identical conditions for the three irreversible inhibitors 1–3: At first, the switching kinetics of the dsDNA lever and the hTGase 2-dsDNA conjugates were recorded. Secondly, the switching kinetics of the hTGase 2-dsDNA conjugates during and after Ca^2+ exposure were recorded using TE40 + 1 mM CaCl2 or TE40, respectively. […] In this process, the hydrodynamic drag was analyzed during the exposure to 10 µM inhibitor (for 6 min) dissolved in TE40 + 1 mM CaCl2 + 0.1% DMSO and to TE40 afterward. […]

In the case of `Nc1nc2c(ncn2[C@@H]2O[C@H](COP(=O)(O)OP(=O)(O)OP(O)(O)=S)[C@@H](O)[C@H]2O)c(=O)[nH]1` [GTPγS], the “relative inverse slope of hTGase 2-dsDNA lever versus pure buffer without effector” value is on record as “significantly smaller”.
